This note sets out measurements from patent publication US9376425B2, “Heterocyclic compounds as MDM2 inhibitors for the treatment of cancer” (AMGEN INC., priority 2011, dated 2016).

pIC50: −log10 of the molar value. Where only a bound is given, the exact number is not on record here.

Broadly, the pIC50 is −log10 of the IC50, conventionally taken in molar units.

For the experiment, the target named is T1, human MDM2 (GST-hMDM2 1-188), interaction with biotinylated-p53 (1-83) (Homo sapiens, UniProt Q00987).
T1 construct: Amino acid residues 1-188 of human MDM2 were expressed; made in house; host or cells: Escherichia coli
T1 sequence (Q00987 1-188): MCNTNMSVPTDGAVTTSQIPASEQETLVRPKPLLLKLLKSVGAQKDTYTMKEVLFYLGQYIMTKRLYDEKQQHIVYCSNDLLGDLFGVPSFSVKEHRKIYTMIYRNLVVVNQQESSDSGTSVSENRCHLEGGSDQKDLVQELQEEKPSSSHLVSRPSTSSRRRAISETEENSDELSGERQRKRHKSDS
In words: improved HTRF assay (HTRF2 assay), inhibition of HDM2-p53 interaction. The experiment is classed as binding. The conditions noted are these: 0.2 nM GST-hMDM2, 0.5 nM biotinylated-p53, 100 mM KF. The procedure, abridged:
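Time-resolved fluorescence (HTRF) read after >4 h equilibration with SA-XLent/anti-GST cryptate/KF detection reagents. Reaction: compound plus GST-hMDM2 for 20 min at room temperature, then E. coli-expressed biotinylated p53 residues 1-83 for 60 min, 2% DMSO final. Inhibition expressed versus nutlin-3.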
On the technique in general: TR-FRET usually uses a lanthanide donor and a delayed reading to cut background.
In the case of `O=C1[C@@H](Cc2nnn[nH]2)O[C@H](c2cccc(Cl)c2)[C@@H](c2ccc(Cl)cc2)N1[C@H](CN(c1ccccc1F)S(=O)(=O)C1CC1)C1CC1` (single isomer, unassigned) [Example 399, N-((S)-2-((2R,5R,6R)-2-((1H-Tetrazol-5-yl)methyl)-6-(3-chlorophenyl)-5-(4-chlorophenyl)-3-oxomorpholino)-2-cyclopropylethyl)-N-(2-fluorophenyl)cyclopropanesulfonamide or N-((S)-2-((2S,5R,6R)-2-((1H-tetrazol-5-yl)methyl)-6-(3-chlorophenyl)-5-(4-chlorophenyl)-3-oxomorpholino)-2-cyclopropylethyl)-N-(2-fluorophenyl)cyclopropanesulfonamide], the pIC50 is over 9.00.

On to `NC(=O)C[C@H]1O[C@H](c2cccc(Cl)c2)[C@@H](c2ccc(Cl)cc2)N([C@H](CN(c2ccccc2)S(=O)(=O)C2CC2)C2CC2)C1=O` (single isomer, unassigned) [Example 361, 2-((2R,5R,6R)-6-(3-Chlorophenyl)-5-(4-chlorophenyl)-4-((S)-1-cyclopropyl-2-(N-phenylcyclopropanesulfonamido)ethyl)-3-oxomorpholin-2-yl)acetamide or 2-((2S,5R,6R)-6-(3-chlorophenyl)-5-(4-chlorophenyl)-4-((S)-1-cyclopropyl-2-(N-phenylcyclopropanesulfonamido)ethyl)-3-oxomorpholin-2-yl)acetamide], for which the pIC50 was over 9.00.

In turn, `CC[C@@H](CS(=O)(=O)C(C)(C)C)N1C(=O)[C@@H](CC(=O)O)O[C@H](c2cc(Cl)cc(Cl)c2)[C@H]1c1ccc(Cl)cc1` (single isomer, unassigned) [Example 147, 2-((2R,5R,6R)-5-(4-chlorophenyl)-6-(3,5-dichlorophenyl)-4-((S)-1-(tert-butylsulfonyl)butan-2-yl)-3-oxomorpholin-2-yl)acetic acid or 2-((2S,5R,6R)-5-(4-chlorophenyl)-6-(3,5-dichlorophenyl)-4-((S)-1-(tert-butylsulfonyl)butan-2-yl)-3-oxomorpholin-2-yl)acetic acid] gave a pIC50 of 8.22.

Turning to `CC[C@@H](CS(=O)(=O)C(C)(C)C)N1C(=O)[C@@H](CNC(=O)OC(C)(C)C)O[C@H](c2cccc(Cl)c2)[C@H]1c1ccc(Cl)cc1` [Example 377, tert-Butyl (((2R,5R,6R)-4-((S)-1-(tert-utylsulfonyl)butan-2-yl)-6-(3-chlorophenyl)-5-(4-chlorophenyl)-3-oxomorpholin-2-yl)methyl)carbamate and tert-butyl (((2S,5R,6R)-4-((S)-1-(tert-butylsulfonyl)butan-2-yl)-6-(3-chlorophenyl)-5-(4-chlorophenyl)-3-oxomorpholin-2-yl)methyl)carbamate], the pIC50 was 7.07.

Compound `CC[C@@H](CS(=O)(=O)C(C)(C)C)N1C(=O)[C@@H](C[C@@H](O)CO)O[C@H](c2cccc(Cl)c2)[C@H]1c1ccc(Cl)cc1` (single isomer, unassigned) [Example 371] gave a pIC50 of 7.82.

For `CC[C@@H](CN(c1ccccc1F)S(=O)(=O)C1CC1)N1C(=O)[C@H](CC(N)=O)O[C@H](c2cccc(Cl)c2)[C@H]1c1ccc(Cl)cc1` (single isomer, unassigned) [Example 241, 2-((2S,5R,6R)-6-(3-chlorophenyl)-5-(4-chlorophenyl)-4-((S)-1-(N-(2-fluorophenyl)cyclopropanesulfonamido)butan-2-yl)-3-oxomorpholin-2-yl)acetamide or 2-((2R,5R,6R)-6-(3-chlorophenyl)-5-(4-chlorophenyl)-4-((S)-1-(N-(2-fluorophenyl)cyclopropanesulfonamido)butan-2-yl)-3-oxomorpholin-2-yl)acetamide], the pIC50 is 9.00.
